Assay results reported in patent publication US20080039425A1, “Methods and Compositions to Reduce Tissue Irritation in Parenteral Formulations” (ALLOS THERAPEUTICS, INC., priority 2004, published 2008).

Tested on: rat tail vein
Experiment: Rat-tail model, histopathological evaluation of tissue damage
Format: in vivo
Conditions: for Histopathology Score: rat tail vein, relative to efaproxiral at 38 mg/mL
Method: In order to determine if the effects seen in the NMR correlated to an ability of the dextrins to protect tissue, an animal model was designed. […] A 38 mg/mL efaproxiral solution was administered as the positive control. A saline solution was used as the negative control.
Maltodextrin has the property of being a safer molecule than its cyclic relative.

## Cc1cc(C)cc(NC(=O)Cc2ccc(OC(C)(C)C(=O)O)cc2)c1 [Efaproxiral, 2-[4-[2-[(3,5-dimethylphenyl)amino]-2-oxoethyl]phenoxy]-2-methyl-propionic acid]
Efaproxiral 20 mg/mL
  Histopathology Score: 24%
Efaproxiral 38 mg/mL (positive control)
  Histopathology Score: 100%

## Cc1cc(C)cc(NC(=O)Cc2ccc(OC(C)(C)C(=O)[O-])cc2)c1.[Na+] [efaproxiral-Na]
38 mg/mL efaproxiral, compared with saline negative control
  Tissue damage in rat tail (in words): significant damage was observed beyond that associated with the administration
